How the values were obtained:
Tc1 cells [1] = assay: Intracellular cytokine staining / flow cytometry of genipin-treated skewed Tc1 cells; assay type: cell-based, Mouse; conditions: added to genipin-treated Tc1 cells; FIG. 2R-2S
Procedure: Mouse lymph nodes and spleens were harvested, and naïve CD4 or CD8 T cells isolated via magnetic bead separation (STEMCELL Technologies) and activated in α-CD3 (10 μg/ml) and α-CD28 (1 μg/ml) pre-coated 96-well plates. Skewing conditions were as follows: Th1 cells/Tc1 cells ([…] 10 μ/ml α-IL-4), Th2 cells/Tc2 cells (20 ng/ml IL-4 and 10 μ/ml α-IFN-γ), Th17 cells/Tc17 cells (20 ng/ml IL-6, 1.25 ng/ml […], 20 ng/ml IL-1β, 20 ng/ml IL-23, 10 μg/ml α-IFN-γ and 10 μg/ml α-IL-4), and Treg cells (5 ng/ml TGF-β, 10 μg/ml α-IFN-γ and 10 μg/ml α-IL-4) in the indicated medium. Cells were cultured for 4-5 days followed by treatment with genipin (3.125 μM, 6.25 μM, 12.5 μM) or DMSO for 12-16 hours.
Monoclonal antibodies were purchased from BD Biosciences or eBioscience. For intracellular cytokine staining (ICS), cells were first restimulated by PMA/ionomycin for 5 hours in the presence of GolgiStop (BD Biosciences), followed by surface epitope staining markers before being fixed/permeabilized (BD Cytofix/Cytoperm™) and stained with antibodies targeting intracellular antigens. Cells were finally fixed with 1.5% formaldehyde for 10 minutes at room temperature and analyzed on a FACSVerse flow cytometer (BD Bioscience). Data were analyzed using FlowJo software (Tree Star Inc.).

Tc1 cells [2] = assay: Metabolic assays (Seahorse ECAR/OCR, mitochondrial pyruvate and acetyl CoA) in Tc1 cells; assay type: cell-based, Mouse; conditions: UK5099 40 μM added to genipin-treated Tc1 cells; FIG. 2G-2L
Procedure: The real-time extracellular acidification rate (ECAR) and oxygen consumption rate (OCR) were measured using a Seahorse XF24 analyzer (Seahorse Bioscience), within XF Glycolysis Stress and XF Cell Mito Stress Test kits used to assess glycolysis and oxidative phosphorylation. 5×10^5 cells exposed to the indicated treatments were plated in an XF-24 microplate coated with Cell-Tak (Corning) one day before the assay. ECAR and OCR were measured after metabolic manipulations by the addition of oligomycin, carbonyl cyanide-p-trifluoromethoxy-phenylhydrazone (FCCP), 2-deoxyglucose (2-DG) and rotenone/anti-mycin A (R/A). Calculations were conducted with Agilent Seahorse Wave Software for Agilent Seahorse XF analyzers (Seahorse Bioscience). For isolation of mitochondria, Tc1 cells were frozen and thawed to weaken the membranes and resuspended in Reagent A of a mitochondria isolation kit (ab110170, Abcam), before being homogenized and centrifuged at 1,000×g for 10 minutes at 4° C. Supernatant was saved (SN #1) and the pellet resuspended in Reagent B. After homogenization and centrifugation, supernatant was saved (SN #2). SN #1 and SN #2 were mixed thoroughly and centrifuged at 12,000×g for 15 minutes at 4° C. The pellet was collected in Reagent C supplemented with protease inhibitors and was used for the pyruvate and acetyl COA assays. Briefly, the mitochondrial pyruvate and acetyl CoA levels in the Tc1 cells were assessed using a commercial Pyruvate Assay Kit (ab65342, Abcam) and PicoProbe Acetyl COA Assay Kit (ab87546, Abcam) according to the manufacturer's instructions.

Structure (SMILES): N#C/C(=C\c1cn(-c2ccccc2)c2ccccc12)C(=O)O [UK5099]
- T-bet expression in genipin-treated (UCP2-deprived) Tc1 cells, effect of added inhibitor (Tc1 cells [1]): blocked the positive regulation of T-bet
- Genipin-driven Tc1 effects (mitochondrial acetyl CoA, mitochondrial pyruvate, histone H3 acetylation, H3K9 acetylation, OCR, IFN-γ), effect of added inhibitor (Tc1 cells [2]): could be reversed

Reference: patent publication US20250018030A1, “PHARMACEUTICAL COMPOSITION FOR PROMOTING CANCER IMMUNOTHERAPY AND METHOD FOR PROMOTING CANCER IMMUNOTHERAPY” (China Medical University, priority 2023, published 2025)
